The test system of assay [1] is pERK in NCI-H1838 (NF1-LOF). Briefly: pERK modulation in vitro, MSD ELISA, NCI-H1838. The conditions noted are these: for extent of the pERK increase: NCI-H1838, compared across type II RAF inhibitors; for EC50: read-out: pERK EC50.
Experimental: (§1) MSD ELISA experiments were conducted by WuXi AppTec on whole cell lysates and generated using the Phospho/Total ERK1/2 Assay Whole Cell Lysate Kit (MSD, cat. no. K15107D) according to the manufacturer’s protocol.
(§2) In vitro modulation of pERK levels was assessed in NF1-LOF and BRAF V600E tumor cell lines by MSD ELISA.
(§3) pERK levels were assessed 1 hour after treatment with each of the test compounds or control. Preparation of 96-well plates for MSD ELISA was performed according to the manufacturer’s instructions using the Phospho/Total ERK1/2 Assay Whole Cell Lysate Kit (MSD, cat no. K15107D). The plates were read using the MSD reader (MESO QuickPlex SQ120, cat. no. SQ120, RRID: SCR_020304). The A375 BRAF V600E tumor cell line served as a positive control.
(§4) The percent phosphoprotein in a sample was calculated using MSD phospho-/total multiplex phosphoprotein assays, as well as the following formula: anti-total and anti-phospho assay in the same well: % phosphoprotein = [(2 × phospho signal)/(phospho signal + total signal)] × 100. The ratio of pERK to total ERK was normalized to the ratio of the DMSO control group. EC50 pERK values and concentration response curves were generated using GraphPad Prism software analysis (RRID: SCR_002798).
In assay [2] the test system is pERK in A375 (BRAF V600E). Briefly: pERK modulation in vitro, MSD ELISA, A375. Type of assay: cell-based. The settings on record: A375, BRAF V600E, melanoma, 1 hour after treatment, n = 2, read-out: pERK EC50.
Experimental: as §1, §2, §3, §4
Assay [3] addresses T1, ARAF (Homo sapiens, UniProt P10398).
T1 sequence (P10398 310-570 limits assumed): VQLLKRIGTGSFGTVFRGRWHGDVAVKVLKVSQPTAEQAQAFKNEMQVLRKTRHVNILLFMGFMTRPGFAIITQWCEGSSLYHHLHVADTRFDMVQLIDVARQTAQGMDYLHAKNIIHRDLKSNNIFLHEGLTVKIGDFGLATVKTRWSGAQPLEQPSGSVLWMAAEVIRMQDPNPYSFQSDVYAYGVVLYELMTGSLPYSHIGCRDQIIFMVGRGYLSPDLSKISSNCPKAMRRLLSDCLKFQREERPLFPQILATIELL
Briefly: Time-resolved fluorescence energy transfer binding assay (KINETICfinder). The conditions noted are these: partial length active recombinant human ARAF at 5 nmol/L; 60 minutes, room temperature; singlicate. As for the experimental part: Compounds were mixed with assay buffer (50 mmol/L HEPES pH 7.5, 1 mmol/L Ethyleneglycol-bis-(aminoethyl-ether)-N,N,N',N'-tetraacetic acid, 0.01% Brij-35, 10 mmol/L MgCl2, and 2 mmol/L Dithiothreitol), and 5 μL of this solution was transferred to the assay plate. The final concentration of DMSO in the assay was 1%. Hundred percent DMSO was used as a high and low control. Assays were run in singlicate with a reference compound included in each assay to evaluate reproducibility and assay quality.
Wells containing the fluorescent probe, antibody, and target (ARAF) were used as the high reaction control (total binding) and wells containing the probe and antibody were used as the low reaction control (nonspecific binding). […] Next, the substrate antibody solution was added, and the reaction was incubated for 60 minutes at room temperature. Percentage inhibition of each well was calculated using the following formula: % inhibition = 100 − [compound emission ratio (ER) − low control ER/high control ER − low control ER] × 100. Results were fitted to a concentration response curve with a variable slope and constraints of 0 and 100 for bottom and top, respectively, to generate the IC50 values.

Assay [4] has as its system BRAF wt. Also on record: method as in earlier work. The conditions noted are these: full length human construct; 0.125 nmol/L GST-tagged BRAF wild type, 12.5 nmol/L biotinylated MEK, ATP 50 μmol/L; 41 (TAK-632: ref 26-28); cited from earlier work.
The test system of assay [5] is CRAF wt. The arrangement: method as in earlier work. The settings on record: full length human construct; GST-tagged CRAF wild type, 50 nmol/L biotinylated MEK, ATP 10 μmol/L; 41 (TAK-632: ref 26-28); cited from earlier work.
Assay [6] concerns MeWo. Briefly: CellTiter-Glo cell viability assay, MeWo.
Experimental: (§5) Next, 2 μL of each concentration was added to 198 μL assay medium (PBS) to create a 10× stock. […] MSD ELISA experiments were conducted by WuXi AppTec on whole cell lysates and generated using the Phospho/Total ERK1/2 Assay Whole Cell Lysate Kit (MSD, cat. no. K15107D) according to the manufacturer’s protocol.
(§6) The in vitro anti-proliferation effect of each of the test compounds was assessed in NF1-LOF and BRAF V600E tumor cell lines cultured as a monolayer using the CellTiter-Glo (CTG) cell viability assay. Cell culture experiments were performed with duplicate wells. Cell concentrations were adjusted for cell density (seeding density of 5,000 for sNF96.2 and MeWo; 6,000 for NCI-H1838; and 2,500 for A375) prior to plating onto a 96-well assay plate and incubated overnight at 37°C with 5% CO2, 95% air, and 100% relative humidity.
(§7) Anti-proliferative activity was assessed after 72 hours of treatment with the test compound or control. […] DMSO was also applied as a control on days 2 and 3. The final DMSO concentration for all test compounds and vehicle control was 0.1%. […] Luminescence was measured on day 3 using the 2104 EnVision Multilabel Reader (PerkinElmer).
(§8) The inhibition rate of the tested compounds was determined using the following formula: inhibition rate (%) = (1 − [relative luminescence unit (RLU) compound − RLU blank])/(RLU control − RLU blank) × 100. […]
Assay [7] concerns A375. Briefly: CellTiter-Glo cell viability assay, A375. The settings on record: read-out: Proliferation EC50.
Experimental: as §5, §6
Anti-proliferative activity was assessed after 72 hours of treatment with the test compound or control. […] DMSO was also applied as a control on days 2 and 3. The final DMSO concentration for all test compounds and vehicle control was 0.1%. The A375 BRAF V600E tumor cell line served as a positive control. Preparation of 96-well plates for CTG assays was performed according to the manufacturer’s instructions using the CTG Luminescent Cell Viability Assay Kit (Promega, RRID: SCR_006724, cat. no. G7573). Luminescence was measured on day 3 using the 2104 EnVision Multilabel Reader (PerkinElmer).
The inhibition rate of the tested compounds was determined using the following formula: inhibition rate (%) = (1 − [relative luminescence unit (RLU) compound − RLU blank])/(RLU control − RLU blank) × 100. EC50 proliferation values were generated using GraphPad Prism software analysis.
Assay [8] has as its system pERK in MeWo (NF1-LOF). Briefly: pERK modulation in vitro, MSD ELISA, MeWo.
Experimental: as §1, §2, §3, §4
Assay [9] has as its system sNF96.2. Briefly: CellTiter-Glo cell viability assay, sNF96.2. The conditions noted are these: read-out: Proliferation EC50.
Experimental: as §5, §6, §7, §8
Assay [10] relates to pERK in sNF96.2 (NF1-LOF). Briefly: pERK modulation in vitro, MSD ELISA, sNF96.2. The conditions noted are these: read-out: pERK EC50.
Experimental: as §1, §2, §3, §4
In assay [11] the test system is NCI-H1838. Briefly: CellTiter-Glo cell viability assay, NCI-H1838. The settings on record: read-out: Proliferation EC50.
Experimental: as §5, §6, §7, §8
Assay [12] concerns NF1-LOF tumor cell lines. Briefly: CellTiter-Glo cell viability assay, statement on all three NF1-LOF tumor cell lines. The settings on record: CTG 72 hours.
Experimental: as §5, §6, §7, §8

Each structure is given as a SMILES string. Where two headings read alike, the source gives them in different places. Where only a bound is given, the exact number is not on record here.

As to `O=C1CCc2c(Oc3ccc4c(c3)[C@@H]3[C@H](O4)[C@H]3c3nc4ccc(C(F)(F)F)cc4[nH]3)ccnc2N1` [BGB-283], the “extent of the pERK increase” value in [1] (1 hour after treatment) is “higher extent”.
Same read-out and setting: under `Cc1ccc2c(Nc3cccc(Cl)c3F)nccc2c1NC(=O)c1csc2c(N)ncnc12` [Belvarafenib] stands “lesser extent”.
Still for that read-out and setting: under `Cc1ccc(NC(=O)c2ccnc(C(F)(F)F)c2)cc1-c1cc(OCCO)nc(N2CCOCC2)c1` [LXH254] stands “lesser extent”.
In the case of `N#Cc1c(Oc2ccc(F)c(NC(=O)Cc3cccc(C(F)(F)F)c3)c2)ccc2nc(NC(=O)C3CC3)sc12` [TAK-632], the EC50 in assay [2] came to 30 nM; in [6] (read-out: Proliferation EC50, CTG 72 hours after treatment, repeated application of tovorafenib) it was 4100 nM; in assay [7] (A375, CTG 72 hours after treatment, repeated application of tovorafenib), 70 nM; in assay [8] (read-out: pERK EC50, NF1-LOF, melanoma, 1 hour after treatment, n = 2), 1600 nM; in assay [9] (sNF96.2, CTG 72 hours after treatment, repeated application of tovorafenib), 2400 nM; in assay [10] (sNF96.2, NF1-LOF, MPNST, 1 hour after treatment, n = 2), 750 nM. For the same compound, the EC50 was determined as 3300 nM in [11] (NCI-H1838, CTG 72 hours after treatment, n = 1, repeated application of tovorafenib) and 1250 nM in [1] (NCI-H1838, NF1-LOF, lung, 1 hour after treatment, n = 1). The results for the IC50 in assay [3], in assay [4] and in [5] were 215 nM, 8.3 nM and 1.4 nM, respectively. Besides, in assay [1] (1 hour after treatment), the “extent of the pERK increase” value is given as “lesser extent”.
Consider `CCCS(=O)(=O)Nc1ccc(F)c(C(=O)c2c[nH]c3ncc(-c4ccc(Cl)cc4)cc23)c1F` [Vemurafenib], for which the EC50 is 20 nM in assay [2] (Homo sapiens, A-375); 4500 nM in assay [6] (Homo sapiens, 72 h, read-out: Proliferation EC50); 90 nM in assay [7] (Homo sapiens, A-375, 72 h); > 10000 nM in assay [8] (Homo sapiens, 1 h, read-out: pERK EC50); 6000 nM in assay [9] (SNF96.2, 72 h); > 10000 nM in assay [10] (SNF96.2, 1 h). For the same compound, the EC50 is > 10000 nM in assay [11] (Homo sapiens, NCI-H1838, 72 h) and > 10000 nM in assay [1] (Homo sapiens, NCI-H1838, 1 h). Besides, in [12], the “sensitivity of cell lines” value is recorded as “insensitive”.

These data come from paper PMC12015663 (Cancer Research Communications, 2025).
